Assays:
[1] = molecular target: T1, HIV integrase (recombinant integrase) (Human immunodeficiency virus type 1 group M subtype B, UniProt P04585); experiment: HIV integrase assay: strand transfer catalyzed by recombinant integrase; format: biochemical
T1 construct: HIV Integrase Assay: Strand Transfer Catalyzed by Recombinant Integrase
Protocol: HIV Integrase Assay: Strand Transfer Catalyzed by Recombinant Integrase
Assays for the strand transfer activity of integrase were conducted in accordance with the method described in Example 193 of WO 02/30930 for recombinant integrase.
Further description on conducting the assay using preassembled complexes is found in Wolfe, A. L. et al., J. Virol. 1996, 70: 1424-1432, Hazuda et al., J. Virol. 1997, 71: 7005-7011; Hazuda et al., Drug Design and Discovery 1997, 15: 17-24; and Hazuda et al., Science 2000, 287: 646-650.

[2] = tested on: HIV mutants that are resistant to other integrase inhibitors; experiment: Antiviral activity against HIV mutants resistant to other integrase inhibitors; format: cell-based
[3] = tested on: HIV; experiment: Antiviral potency in the presence of human serum proteins; format: cell-based; details: relative to closely related N-benzyl-8-hydroxy-1,6-naphthyridine carboxamide integrase inhibitors without ortho polar substituent

## CNC(=O)c1cc(F)ccc1CNC(=O)c1nc(N2CCCCS2(=O)=O)c2cccnc2c1O [Example 3, Sodium 5-(1,1-dioxido-1,2-thiazinan-2-yl)-7-[({4-fluoro-2-[(methylamino)carbonyl]-benzyl}amino)carbonyl]-1,6-naphthyridin-8-olate]
[1]
  IC50: < 500 nM

## CNC(=O)c1cc(F)ccc1CNC(=O)c1nc(N2CCCCS2(=O)=O)c2cccnc2c1O [Compound A, N-{4-fluoro-2-[(methylamino)carbonyl]benzyl}-5-(1,1-dioxido-1,2-thiazinan-2-yl)-8-hydroxy-1,6-naphthyridine-7-carboxamide]
[2]
  antiviral activity against several HIV mutants resistant to other integrase inhibitors: retention of significant antiviral activity
[3]
  antiviral potency in the presence of human serum proteins: improved
